Read-outs that look alike come from different tables or passages of the source. Blank lines part the entries; values can stand above or below the compound they belong to.
Legend:
[1] = system: A549 Human lung carcinoma cells; experiment: A549 Human Lung Cell Assay (transfected cells, dexamethasone challenge, luciferase read-out); format: cell-based; conditions: test compound 10 min then dexamethasone challenge, 24 h, Luc-assay, read-out: A 549 IC50
Description: A549Human Lung Cell Assay
A549Human lung carcinoma cells were grown in F-12K Nutrient Mixture containing 10% (v/v) fetal bovine serum (FBS; Invitrogen), 2 mM glutamine and 0.15% sodium dicarbonate (Invitrogen).
A549 cells were split 1 to 3 in 175 cm tissue culture flask. The cells were incubated at 37° C. in CO2 incubator until the cells were 95% confluent (typically 24-30 hours).
The following solutions were prepared in sterile tubes: (a) Solution A 1.5 μg/ml of DNA in 8.5 ml OPTI-MEM I Reduced Serum Medium. (GIBCO cat# 31985) and (b) Solution B: 6 μl/ml of DMRIE-C Reagent into […] OPTI-MEM I. The two solutions were combined and mixed gently, then incubated at room temperature for 40 minutes.
The A549 cells prepared above were washed with […] of OPTI-MEM I. The medium was removed and 17 ml of the lipid-DNA complex solution was overlayed onto cells. The cells ere then incubated for 16 h at 37° C. in CO2 incubator. The DNA-containing medium was removed and 30 ml of growth medium was added. (5% Charcoal treated FBS) After 5-6 h, the cells were seeded in a 96 well plate and the cells incubated overnight at 37° C. in CO2 incubator.
To each well was then added 5 μl of test compounds and the cells incubated at 37° C. for 10 min. 5 μL of dexamathasone (CAS [50-02-2]), was then added to each well for challenger and the cells incubated at 37° C. in CO2 incubator for 24 h. 100 μl of Luc-assay buffer was then added into each cell well and the cells incubated for 30 min at room temperature. A 150 μL sample from each well was then transferred into a DYNEX Microlitel plate and read on Top-counter.
(§1) Representative compounds of the present invention were tested according to the procedures described in Examples 45 and 46 above, with results as listed in Table 2 below.

[2] = system: T47D human breast cancer cells; experiment: T47D Human Breast Cancer Cells Assay (alkaline phosphatase, luminescence); format: cell-based
Description: T47D Human Breast Cancer Cells Assay
T47D human breast cancer cells were grown in RPMI medium without phenol red (Invitrogen) containing 10% (v/v) heat-inactivated fetal bovine serum (FBS; Hyclone), 1% (v/v) penicillin-streptomycin (Invitrogen), 1% (w/v) glutamine (Invitrogen), and […] insulin (Sigma). Incubation conditions were 37° C. in a humidified 5% (v/v) carbon dioxide environment.
The cells were plated in 96-well tissue culture plates at 10,000 cells per well in assay medium [RPMI medium without phenol red (Invitrogen) containing 5% (v/v) charcoal-treated FBS (Hyclone) and 1% (v/v) penicillin-streptomycin (Invitrogen)]. Two days later, the medium was decanted and test compound or control were added at a final concentration of 0.1% (v/v) dimethyl sulfoxide in fresh assay medium. Twenty-four hours later, an alkaline phosphatase assay was performed using a SEAP kit (BD Biosciences Clontech, Palo Alto, Calif.). Briefly, the medium was decanted and the cells were fixed for 30 minutes at room temperature with 5% (v/v) formalin (Sigma). The cells were washed once with room temperature Hank's buffered saline solution (Invitrogen). Equal volumes (0.05 mL) of 1× Dilution Buffer, Assay Buffer and 1:20 substrate/enhancer mixture were then added. After 1 hour incubation at room temperature in the dark, the lysate was transferred to a white 96-well plate (Dynex) and luminescence was read using a LuminoSkan Ascent (Thermo Electron, Woburn, Mass.).
as §1

[3] = T47D cells, 24 h with test compound, alkaline phosphatase assay (SEAP kit), read-out: T47D IC50
[4] = Homo sapiens, T47D, 24 h, read-out: T47D IC50 (nM), T47D cells, 24 h with test compound, alkaline phosphatase assay (SEAP kit)

IC50 ([1]; A549 cells): > 1000 nM
Compound: 1-Hydroxy-1-isopropenyl-10-(4-methanesulfonyl-phenyl)-12a-methyl-2,3,3a,3b,4,5,9,10,10,12,12a-decahydro-1H,8H-11-oxa-naphtho[2,1-e]azulen-7-one [Compound 30]

Compound: 10-(4-Dimethylamino-phenyl)-1-(3-fluoro-phenylethynyl)-1-hydroxy-12a-methyl-2,3,3a,3b,4,5,9,10,12,12 a-decahydro-1H,8H-11-oxa-naphtho[2,1-e]azulen-7-one [Compound 34]
IC50 [2, 3]: 122 nM

Compound: 10-(4-Dimethylamino-phenyl)-1-(4-fluoro-phenylethynyl)-1-hydroxy-12a-methyl-2,3,3a,3b,4,5,9,10,12,12a-decahydro-1H,8H-11-oxa-naphtho[2,1-e]azulen-7-one [Compound 35]
IC50 [2, 3]: 17 nM

Compound: 10-(4-Dimethylamino-phenyl)-1-ethynyl-1-hydroxy-12a-methyl-2,3,3a,3b,4,5,9,10,12,12a-decahydro-1H,8H-11-oxa-naphtho[2,1-e]azulen-7-one [Compound 3]
IC50 [2, 3]: 7 nM
IC50 ([1]; A549 cells): 133 nM

IC50 ([1]; Homo sapiens, A549, A549 cells): 1320 nM
Compound: CSc1ccc([C@H]2OC[C@]3(C)C(=O)CCC3C3CCC4=CC(=O)CCC4=C32)cc1 (stereo partly drawn) [Compound 25, 12a-Methyl-10-(4-methylsulfanyl-phenyl) 2,3,3a,3b,4,5,9,10,12,12a-decahydro-8H-11-oxa-naphtho[2,1-e]azulene-1,7-dione]

IC50 ([1]; Homo sapiens, A549, A549 cells): 2310 nM
Compound: C=CC(=O)[C@]1(O)CCC2C3CCC4=CC(=O)CCC4=C3[C@@H](c3ccc(SC)cc3)OC[C@@]21C (stereo partly drawn) [Compound 26]

Compound: CC#C[C@]1(O)CCC2C3CCC4=CC(=O)CCC4=C3[C@@H](c3ccc(OC)cc3)OC[C@@]21C (stereo partly drawn) [Compound 27]
IC50 ([1]; A549 cells): 41.5 nM

IC50 ([1]; Homo sapiens, A549, A549 cells): > 3000 nM
Compound: COc1ccc([C@H]2OC[C@]3(C)C(=O)CCC3C3CCC4=CC(=O)CCC4=C32)cc1 (stereo partly drawn) [Compound 28, 10-(4-Methoxy-phenyl)-12a-methyl-2,3,3a,3b,4,5,9,10,12,12a-decahydro-8H-11-oxa-naphtho[2,1-e]azulene-1,7-dione]

IC50 ([1]; Homo sapiens, A549, A549 cells): > 3000 nM
Compound: COc1ccc([C@@H]2OC[C@]3(C)C(=O)CCC3C3CCC4=CC(=O)CCC4=C32)cc1 (stereo partly drawn) [Compound 29, 10-α-(4-Methoxy-phenyl)-12a-methyl-2,3,3a,3b,4,5,9,10,12,12a-decahydro-8H-11-oxa-naphtho[2,1-e]azulene-1,7-dione]

Compound: CN(C)c1ccc([C@H]2OC[C@@]3(C)C(CC[C@@]3(O)C#Cc3ccccc3)C3CCC4=CC(=O)CCC4=C32)cc1 (stereo partly drawn) [Compound 31, 10-(4-Dimethylamino-phenyl)-1-hydroxy-12a-methyl-1-phenyl ethynyl-2,3,3a,3b,4,5,9,10,12,12a-decahydro-1H,8H-11-oxa-naphtho[2,1-e]azulen-7-one]
IC50 [2, 4]: 78 nM

Compound: CN(C)c1ccc([C@H]2OC[C@@]3(C)C(CC[C@@]3(O)C#Cc3ccccc3F)C3CCC4=CC(=O)CCC4=C32)cc1 (stereo partly drawn) [Compound 32, 10-(4-Dimethylamino-phenyl)-1-(2-fluoro-phenylethynyl)-1-hydroxy-12a-methyl-2,3,3a,3b,4,5,9,10,12,12a-decahydro-1H,8H-11-oxa-naphtho[2,1-e]azulen-7-one]
IC50 [2, 4]: 48 nM

Compound: CN(C)c1ccc([C@H]2OC[C@@]3(C)C(CC[C@@]3(O)C#Cc3cc(F)cc(F)c3)C3CCC4=CC(=O)CCC4=C32)cc1 (stereo partly drawn) [Compound 36, 1-(3,5-Difluoro-phenylethynyl)-10-(4-dimethylamino-phenyl)-1-hydroxy-12a-methyl-2,3,3a,3b,4,5,9,10,12,12a-decahydro-1H,8H-11-oxa-naphtho[2,1-e]azulen-7-one]
IC50 [2, 4]: 160 nM

Compound: CN(C)c1ccc(C2OCC3(C)C(CCC3(O)C(F)(F)C(F)(F)F)C3CCC4=CC(=O)CCC4=C23)cc1 (stereo not drawn) [Compound 37, 10-(4-Dimethylamino-phenyl)-1-hydroxy-12a-methyl-1-penta fluoroethyl 2,3,3a,3b4,5,9,10,12,12a-decahydro-1H,8H-11-oxa-naphtho[2,1-e]azulen-7-one]
IC50 [2, 3]: 42 nM

Compound: C=C1CCOC12CC[C@H]1[C@@H]3CCC4=CC(=O)CCC4=C3[C@@H](c3ccc(N(C)C)cc3)OC[C@@]12C (stereo partly drawn) [Compound 38]
IC50 [2, 4]: 1.1 nM

Source: patent US7390831B2, “Tetracyclic steroid derivatives useful as progesterone receptor modulators” (Janssen Pharmaceutica N.V., priority 2006, dated 2008)
